{"source": "patent US20070078085A1", "about": "“Methods and compositions for the utilization and targeting of osteomimicry” (priority 2004, published 2007)", "key": {"OC mRNA": {"system": "OC mRNA", "test": "Semi-quantitative RT-PCR of endogenous OC mRNA", "assay_type": "cell-based, human", "conditions": "LNCaP and C4-2B cells (data not shown)", "procedure": "(§1) Reverse Transcription-Polymerase Chain Reaction (RT-PCR) Analysis. Total RNA was isolated from confluent monolayers of cells using RNAZol B (Teltest Inc., Friendswood, Tex.). Five μg of total RNA was used as template and 0.15 μg of random hexanucleotide primers were added for reverse transcription and amplification in a reaction volume of 20 μl, according to the manufacturer's instruction (Invitrogen, Carlsbad, Calif.). After RT reaction, 3-5 μl of the 1st-strand cDNA was used for PCR with a PTC-100 programmable Thermal Controller (MJ Research Inc.). The oligonucleotide primer sets used for PCR analysis of cDNA are: hOC, 5′-[…]-3′ (forward) and 5′-[…]-3′ (reverse); hBSP, 5′-[…]-3′ (forward) and 5′-[…]-3′ (reverse); and glyceraldehyde phosphate dehydrogenase (GAPDH), 5′-[…]-3′ (forward) and 5′-[…]-3′ (reverse), respectively. The thermal profile for hOC amplification is 30 cycles starting with denaturation 1 min at 94° C., followed by 1 min of annealing at 55° C. and 1 min of extension at 72° C. For hBSP amplification the thermal profile is 35 cycles starting with denaturation 1 min at 94° C., followed by 30 s of annealing at 48° C. and 40 s of extension at 72° C. The program for GAPDH amplification is 25 cycles starting with denaturation 30 s at 94° C., followed by 30 s of annealing at 60° C. and 1 min of extension at 72° C. The RT-PCR products were analyzed by 1.2% agarose gel electrophoresis. Quantity one-4.1.1 Gel Doc gel documentation software (Bio-Rad) or NIH image were used for quantification of hOC and hBSP mRNA expression normalized by GAPDH mRNA expression."}, "BSP mRNA": {"system": "BSP mRNA", "test": "Semi-quantitative RT-PCR of endogenous BSP mRNA", "assay_type": "cell-based, human", "conditions": "LNCaP and C4-2B cells (data not shown)", "procedure": "as §1"}}}
{"smiles": "O=S(=O)(NCCNCC=Cc1ccc(Br)cc1)c1cccc2cnccc12", "note": "[H-89, N-[2-(p-bromocinnamylamino)ethyl]-5-isoquinolinesulfonamide]", "values": [{"measurement": "induction of endogenous OC mRNA expression by ARCaP CM or FSK", "setting": "OC mRNA", "result": "inhibited"}, {"measurement": "induction of endogenous BSP mRNA expression by ARCaP CM or FSK", "setting": "BSP mRNA", "result": "inhibited"}]}
